Measurements taken from the OPERA property sets (Mansouri et al. 2018).

Row | SMILES | logP
1 | [O-][n+]1ccc(Cl)cc1 | -0.44
2 | C=CCC(C)OC(=O)Nc1ccc(OCC)c(OCC)c1 (configuration not stated) | 3.37
3 | Cc1ccnc(N)c1 | 0.56
4 | C=CCNC(=O)NCCCCC(NC(C)=O)C(=O)NCc1ccccc1 (configuration not stated) | 0.76
5 | CCCCCCCCCCn1c(N)c(N)c(=O)[nH]c1=O | 3.04
6 | CC(=O)Oc1ccc(C(=O)O)cc1 | 1.48
7 | CCCCNC(=O)COC(=O)Cc1ccc2cc(OC)ccc2c1 | 3.57
8 | CC(=O)Nc1n[n+]([O-])c2cc(C)ccc2[n+]1[O-] | -0.4
9 | OC1(Cn2cncn2)CCCC1Cc1ccc(Cl)cc1 (configuration not stated) | 3.11
10 | CCCOc1ccccc1NC(=O)OC1CCCCC1CN(C)C (configuration not stated) | 4.44
11 | CN(C)C(=O)Oc1cccc(Cl)c1 | 2.33
12 | CCNC(=O)COC(=O)Cc1ccc2cc(OC)ccc2c1 | 2.65
13 | C=CCN1CCN(CC=C)C1=S | 1.63
14 | CC(=O)NC(CCCCNC(=O)NCCCl)C(=O)NCc1ccccc1 (configuration not stated) | 0.61
15 | CC(C(N)=O)c1ccc(-n2sc3ccccc3c2=O)cc1 (configuration not stated) | 2.07
16 | CCCCCCn1c(N)c(N)c(=O)[nH]c1=O | 1.01
17 | c1ccc(CC2CC3=NOS4=C3C(=NO4)C2)cc1 | 2.8
18 | C#CCOc1ccc(NC=NOCC)cc1OCC#C | 1.9
19 | CCC(=O)Oc1ccccc1C(=O)O | 1.67
20 | CCOC(=O)C(C)c1ccc(-n2sc3ccccc3c2=O)cc1 (configuration not stated) | 3.91
21 | CCCN(CCCl)c1c([N+](=O)[O-])cc(C(F)(F)F)cc1[N+](=O)[O-] | 4.63
22 | C#CCNC(=O)NCCCC(NC(C)=O)C(=O)NCc1ccccc1 (configuration not stated) | -0.31
23 | CC12CCC(CC1=O)C2(C)C (configuration not stated) | 2.38

Row | SMILES | logP
24 | CNC(=O)N(CCCCC(NC(C)=O)C(=O)NCc1ccccc1)Cc1ccccc1 (configuration not stated) | 1.99
25 | Cc1cc2c(cc1C)[n+]([O-])c(N)n[n+]2[O-] | 0.56
26 | C#CCCOC(=O)Nc1ccc(OCC)c(OCC)c1 | 2.54
27 | COc1ccc2cc(CC(=O)OCC(=O)N(C)CCO)ccc2c1 | 1.58
28 | C#CCOc1cc(NC=NOCC)cc(F)c1OCC#C | 2.1
29 | CNC(=O)ON=C(CSC)C(C)(C)C | 2.75
30 | ClC1=C(Cl)C2C(C1Cl)C1(Cl)C(Cl)C(Cl)C2(Cl)C1(Cl)Cl (configuration not stated) | 6.08
31 | C#CCOc1cc(NC=NOCOC)cc(Cl)c1OCC#C | 2.2
32 | CCOc1ccc(NC(=O)OC(C)COC)cc1OCC (configuration not stated) | 2.56
33 | CCCCCCCOc1ccccc1NC(=O)OC1CCCCC1CN(C)C (configuration not stated) | 6.3
34 | COC(=O)C(C)c1ccc(-n2sc3ccccc3c2=O)cc1 (configuration not stated) | 3.46
35 | CCOC(=O)C(C)Oc1ccc(-n2sc3ccccc3c2=O)cc1 (configuration not stated) | 3.89
36 | COc1ccc2c(c1)[n+]([O-])nc(N)[n+]2[O-] | 0
37 | C=CCN(N=O)C(=O)NCCCCC(NC(C)=O)C(=O)NCc1ccccc1 (configuration not stated) | 1.62
38 | CN(C)C(=O)Oc1cccc([N+](=O)[O-])c1 | 1.56
39 | CCOC(=O)COc1ccc(-n2sc3ccccc3c2=O)cc1 | 2.96
40 | COC1N(C2CC(N=[N+]=[N-])C(CO)O2)C(=O)NC(=O)C1(C)I (configuration not stated) | 1.03
41 | O=C1NC(=O)C(c2ccccc2)(c2ccccc2)N1S(=O)(=O)c1ccc([N+](=O)[O-])cc1 | 4.04
42 | O=C1NC(=O)C(c2ccccc2)(c2ccccc2)N1S(=O)(=O)c1ccccc1 | 4.04
43 | CN(C)C(=O)Oc1ccc(C#N)cc1 | 1.21
44 | C#CCOc1cc(NC=NOCC=C)cc(Cl)c1OCC#C | 2.7
45 | O=C1NC(Cc2c[nH]c3ccccc23)C(=O)NC1Cc1ccc(O)cc1 (configuration not stated) | 1.05
46 | COC1N(C2CC(N=[N+]=[N-])C(CO)O2)C(=O)NC(=O)C1(C)Cl (configuration not stated) | 0.84

Row | SMILES | logP
47 | CCCN1CCN(CCC)C1=S | 1.86
48 | C=CCNC(=O)N(CCC)CCCC(NC(C)=O)C(=O)NCc1ccccc1 (configuration not stated) | 1.21
49 | CC1(C)CC2=NOS3=C2C(=NO3)C1 | 1.9
50 | Cc1cc[n+]([O-])cc1 | -0.88
51 | CC(=O)CC(=O)Nc1n[n+]([O-])c2ccccc2[n+]1[O-] | -1.4
52 | CCOC(=O)CCCOc1ccc(-n2sc3ccccc3c2=O)cc1 | 3.96
53 | CC(C)c1ccc(OC(=O)N(C)C)cc1 | 3.04
54 | CC(C)(C)c1ccc(CC2CCCC2(O)Cn2cncn2)cc1 (configuration not stated) | 3.97
55 | Clc1ccc(-c2ccc(Cl)c(Cl)c2)cc1 | 5.9
56 | CCOC(=O)Cc1ccc(-n2sc3ccccc3c2=O)cc1 | 3.33
57 | C=CCOc1ccc2c(c1)[n+]([O-])nc(N)[n+]2[O-] | 0.76
58 | CCCN(CCCC(NC(C)=O)C(=O)NCc1ccccc1)C(=O)N(C)N=O (configuration not stated) | 1.61
59 | COC(=O)Cc1ccc(-n2sc3ccccc3c2=O)cc1 | 2.83
60 | O=c1[nH]c2ccccc2n1C1CCNCC1 | 1.14
61 | C=CCN1CCCN(CC=C)C1=S | 2.08
62 | C1SCC2=NOS3=C2C1=NO3 | 1.2
63 | C=CCNC(=O)NCCCC(NC(C)=O)C(=O)NCc1ccccc1 (configuration not stated) | 0.68
64 | COc1ccc2c(c1OC)-c1ccc(OC)c(=O)cc1C(NC(C)=O)CC2 (configuration not stated) | 1.02
65 | C#CCOc1cc(NC=NOC)cc(Cl)c1OCC#C | 2.3
66 | CC(=O)NC(CCCCN(Cc1ccccc1)C(=O)N(C)N=O)C(=O)NCc1ccccc1 (configuration not stated) | 2.12
67 | CC1CCC2C(C)COC3OC4(C)CCC1C32OO4 (configuration not stated) | 3.16
68 | COc1ccc2cc(CC(=O)OCC(=O)NC3CCCCC3)ccc2c1 | 3.99
69 | COC(=O)c1ccc(-n2sc3ccccc3c2=O)cc1 | 3.49

Row | SMILES | logP
70 | COc1ccc2cc(CC(=O)OCC(N)=O)ccc2c1 | 1.88
71 | CN(C)C(=O)Oc1ccc(F)cc1 | 1.58
72 | CNC(=O)NCCCCC(NC(C)=O)C(=O)NCc1ccccc1 (configuration not stated) | 0.06
73 | C=CCN(N=O)C(=O)NCCCC(NC(C)=O)C(=O)NCc1ccccc1 (configuration not stated) | 1.3
74 | OC1(Cn2cncn2)CCCC1Cc1ccc(-c2ccccc2)cc1 (configuration not stated) | 3.92
75 | CC1CC2=NOS3=C2C(=NO3)C1 | 1.5
76 | COc1ccccc1NC(=O)OC1CCCCC1CN(C)C (configuration not stated) | 3.55
77 | COc1ccc(-c2nnc(NC(=O)c3c(OC)cccc3OC)s2)cc1 | 3.56
78 | CN(C)C(=O)Oc1cccc(C#N)c1 | 1.23
79 | CCOc1ccc(NC(=O)OC(C)CF)cc1OCC (configuration not stated) | 2.59
80 | CCc1ccc(OC(=O)N(C)C)cc1 | 2.55
81 | CCCCOc1ccccc1NC(=O)OC1CCCCC1CN(C)C (configuration not stated) | 5.01
82 | Cn1c(N)c(N)c(=O)[nH]c1=O | -1.4
83 | C=CCN(CC=C)C(=O)COC(=O)Cc1ccc2cc(OC)ccc2c1 | 3.67
84 | CCN(CCO)C(=O)COC(=O)Cc1ccc2cc(OC)ccc2c1 | 1.98
85 | CCCN(CCCC(NC(C)=O)C(=O)NCc1ccccc1)C(=O)NC (configuration not stated) | 1.47
86 | COCCNC(=O)Cn1ccnc1[N+](=O)[O-] | -0.77
87 | CC(=O)c1cc[n+]([O-])cc1 | -0.93
88 | CCC(C)c1ccc(OC(=O)N(C)C)cc1 (configuration not stated) | 3.62
89 | CCCCc1ccc(CO)cc1 | 3
90 | CC(C)=CCN1CC[C@@]2(C)c3cc(O)ccc3C[C@@H]1[C@@H]2C | 4.64
91 | CCCN(CCCCC(NC(C)=O)C(=O)NCc1ccccc1)C(=O)N(C)N=O (configuration not stated) | 1.73
92 | C#CCOc1cc(NC=NOC)cc(F)c1OCC#C | 1.8

Row | SMILES | logP
93 | COC1N(C2CC(N=[N+]=[N-])C(CO)O2)C(=O)NC(=O)C1(C)Br (configuration not stated) | 1.12
94 | CCCC(=O)Oc1ccccc1C(=O)O | 2.2
95 | O=[N+]([O-])C=C1CCCN1Cc1ccc(Cl)nc1 | 0.68
96 | Nc1n[n+]([O-])c2ccc(Cl)cc2[n+]1[O-] | 0.41
97 | CC(=O)NC(CCCCNC(=O)N(C)N=O)C(=O)NCc1ccccc1 (configuration not stated) | 1.18
98 | CCOC(=O)NC1CCc2cc(OC)c(OC)c(OC)c2-c2ccc(OC)c(=O)cc21 (configuration not stated) | 2.3
99 | C#CCON=CNc1cc(F)c(OCC#C)c(OCC#C)c1 | 1.8
100 | CCOc1ccc(NC(=O)OCCBr)cc1OCC | 2.78
101 | Cc1ccc2c(c1)[n+]([O-])nc(N)[n+]2[O-] | 0.2
102 | COc1ccc2cc(CC(=O)OCC(=O)NC(C)(C)C)ccc2c1 | 3.6
103 | COc1ccc2cc(CC(=O)OCC(=O)N(C(C)C)C(C)C)ccc2c1 | 3.89
104 | CNC(=O)COC(=O)Cc1ccc2cc(OC)ccc2c1 | 2.19
105 | CCCNC(=O)COC(=O)Cc1ccc2cc(OC)ccc2c1 | 3.1
106 | C#CCON=CNc1cc(Cl)c(OCC#C)c(OCC#C)c1 | 2.3
107 | COP(=O)(CC(C)=O)OC | -0.86
108 | CCOc1ccc(NC(=O)OCCF)cc1OCC | 2.27
109 | CCc1ccc(CO)cc1 | 2.27
110 | OC1(Cn2cncn2)CCCC1Cc1ccccc1 (configuration not stated) | 2.26
111 | COc1ccc2cc(CC(=O)OCC(=O)N3CCOCC3)ccc2c1 | 2.13
112 | CCC(C(N)=O)c1ccc(-n2sc3ccccc3c2=O)cc1 (configuration not stated) | 2.58
113 | CCOc1ccc(-c2nnc(NC(=O)c3c(OC)cccc3OC)s2)cc1 | 3.75
114 | CCCCCCCCn1c(N)c(N)c(=O)[nH]c1=O | 2.05
115 | CC(=O)Oc1cccc(C(=O)O)c1 | 1.49

Row | SMILES | logP
116 | O=C1NC(=O)C(c2ccccc2)(c2ccccc2)N1S(=O)(=O)c1ccc(Cl)cc1 | 4.48
117 | CCCN(CCCCC(NC(C)=O)C(=O)NCc1ccccc1)C(=O)NC (configuration not stated) | 1.6
118 | CCC(C(=O)OC)c1ccc(-n2sc3ccccc3c2=O)cc1 (configuration not stated) | 3.91
119 | CC(=O)c1ccc(OC(=O)N(C)C)cc1 | 1.27
120 | C=CCN(N=O)C(=O)N(CCCCC(NC(C)=O)C(=O)Nc1ccccc1)Cc1ccccc1 (configuration not stated) | 2.7
121 | CCC1CCC(Cc2ccc(Cl)cc2)C1(O)Cn1cncn1 (configuration not stated) | 3.71
122 | CN(C)C(=O)Oc1cccc(F)c1 | 1.75
123 | N#CN=C1NCCN1Cc1ccc(Cl)nc1 | 0.77
124 | CCOC(=O)C(CC)c1ccc(-n2sc3ccccc3c2=O)cc1 (configuration not stated) | 4.11
125 | COc1cccc(OC)c1C(=O)Nc1nnc(-c2ccc(F)cc2)s1 | 3.5
126 | [O-][n+]1nc2ccccc2c2ccccc21 | 2.24
127 | CCOc1cc[n+]([O-])cc1 | -0.53
128 | CC=CCOCN(C(=O)CCl)c1c(CC)cccc1CC | 3.51
129 | CCCCCOc1ccccc1NC(=O)OC1CCCCC1CN(C)C (configuration not stated) | 5.46
130 | CCOc1ccc(NC(=O)OC(C)CCl)cc1OCC (configuration not stated) | 2.97
131 | Cc1ccccc1S(=O)(=O)N1C(=O)NC(=O)C1(c1ccccc1)c1ccccc1 | 4
132 | COc1ccc2cc(CC(=O)O)ccc2c1 | 2.82
133 | Cc1ccc(CC2CCCC2(O)Cn2cncn2)cc1 (configuration not stated) | 2.71
134 | CCC(C)NC(=O)COC(=O)Cc1ccc2cc(OC)ccc2c1 (configuration not stated) | 3.31
135 | CCOc1ccc(NC(=O)OCCCl)cc1OCC | 2.62
136 | CCc1cccc(OC(=O)N(C)C)c1 | 2.47
137 | Nc1n[n+]([O-])c2cc(OCC(O)CO)ccc2[n+]1[O-] (configuration not stated) | -1.1
